± gives the expanded uncertainty stated by the source.
Test: xn = mol fraction of the nth substance listed
Details: Liquid, Bellows volumetry

CCCC [butane] + CCC
mass density [kg/m3]
Details	280 K	300 K	320 K	340 K	360 K	380 K	400 K	420 K	440 K
1000 kPa, x2 = 0.2729	578.83 ± 1	–	528 ± 0.95	–	–	–	–	–	–
1000 kPa, x2 = 0.5021	563.28 ± 1	537.32 ± 0.97	–	–	–	–	–	–	–
1000 kPa, x2 = 0.7308	546.41 ± 0.99	–	–	–	–	–	–	–	–
2000 kPa, x2 = 0.2729	580.29 ± 1.1	–	530.61 ± 0.96	–	467.01 ± 0.84	–	–	–	–
2000 kPa, x2 = 0.5021	564.88 ± 1	539.48 ± 0.97	511.85 ± 0.92	479.55 ± 0.87	–	–	–	–	–
2000 kPa, x2 = 0.7308	548.19 ± 0.99	–	489.94 ± 0.89	–	–	–	–	–	–
3000 kPa, x2 = 0.2729	581.81 ± 1.1	–	533.12 ± 0.96	–	472.48 ± 0.86	–	–	–	–
3000 kPa, x2 = 0.5021	566.5 ± 1	541.56 ± 0.98	514.73 ± 0.93	483.91 ± 0.88	445.79 ± 0.81	–	–	–	–
3000 kPa, x2 = 0.7308	550.07 ± 0.99	–	493.41 ± 0.89	–	409.73 ± 0.75	–	–	–	–
5000 kPa, x2 = 0.2729	584.56 ± 1.1	–	537.8 ± 0.97	–	481.94 ± 0.87	–	398.7 ± 0.73	–	–
5000 kPa, x2 = 0.5021	569.65 ± 1	545.62 ± 0.98	519.99 ± 0.94	491.54 ± 0.89	458.29 ± 0.83	415.53 ± 0.76	–	–	–
5000 kPa, x2 = 0.7308	553.51 ± 1	–	499.74 ± 0.9	–	428.83 ± 0.78	–	–	–	–
10000 kPa, x2 = 0.2729	591.21 ± 1.1	–	548.01 ± 0.99	–	499.9 ± 0.9	–	441.29 ± 0.8	–	365.44 ± 0.66
10000 kPa, x2 = 0.5021	576.66 ± 1	554.42 ± 1	531.57 ± 0.96	506.78 ± 0.91	480.01 ± 0.87	449.59 ± 0.81	415.12 ± 0.76	374.84 ± 0.69	–
10000 kPa, x2 = 0.7308	561.23 ± 1	–	512.85 ± 0.93	–	456.8 ± 0.83	–	383.18 ± 0.7	–	–
20000 kPa, x2 = 0.2729	602.5 ± 1.1	–	564.4 ± 1	–	524.51 ± 0.95	–	481.03 ± 0.87	–	435.74 ± 0.79
20000 kPa, x2 = 0.5021	588.96 ± 1.1	569.12 ± 1	549.41 ± 0.99	528.92 ± 0.95	507.83 ± 0.92	485.35 ± 0.88	462.03 ± 0.84	438.42 ± 0.79	414.16 ± 0.75
20000 kPa, x2 = 0.7308	574.44 ± 1	–	532.72 ± 0.96	–	488.73 ± 0.88	–	440.67 ± 0.8	–	389.82 ± 0.71
30000 kPa, x2 = 0.2729	612.44 ± 1.1	–	577.65 ± 1	–	542.33 ± 0.98	–	505.41 ± 0.91	–	469.11 ± 0.85
30000 kPa, x2 = 0.5021	599.33 ± 1.1	581.32 ± 1.1	563.54 ± 1	545.35 ± 0.98	527.21 ± 0.95	508.03 ± 0.92	488.88 ± 0.88	469.92 ± 0.85	451.25 ± 0.82
30000 kPa, x2 = 0.7308	585.33 ± 1.1	–	547.73 ± 0.99	–	509.86 ± 0.92	–	470.45 ± 0.85	–	431.31 ± 0.78
40000 kPa, x2 = 0.2729	621.14 ± 1.1	–	588.82 ± 1.1	–	556.62 ± 1	–	523.61 ± 0.94	–	492.08 ± 0.89
40000 kPa, x2 = 0.5021	608.38 ± 1.1	591.53 ± 1.1	575.17 ± 1	558.59 ± 1	542.25 ± 0.98	525.24 ± 0.95	508.28 ± 0.92	491.93 ± 0.89	475.9 ± 0.86
40000 kPa, x2 = 0.7308	594.97 ± 1.1	–	560.18 ± 1	–	526.15 ± 0.95	–	491.38 ± 0.89	–	458.02 ± 0.83
50000 kPa, x2 = 0.2729	628.91 ± 1.1	–	598.52 ± 1.1	–	568.47 ± 1	–	538.25 ± 0.97	–	509.82 ± 0.92
50000 kPa, x2 = 0.5021	616.39 ± 1.1	600.55 ± 1.1	585.24 ± 1.1	569.82 ± 1	554.89 ± 1	539.26 ± 0.97	523.78 ± 0.94	509 ± 0.92	494.74 ± 0.89
50000 kPa, x2 = 0.7308	603.42 ± 1.1	–	570.96 ± 1	–	539.49 ± 0.97	–	507.84 ± 0.92	–	478.11 ± 0.86
60000 kPa, x2 = 0.2729	635.9 ± 1.1	–	607.13 ± 1.1	–	578.91 ± 1	–	550.71 ± 0.99	–	524.44 ± 0.95
60000 kPa, x2 = 0.5021	623.79 ± 1.1	608.7 ± 1.1	594.24 ± 1.1	579.76 ± 1	565.84 ± 1	551.17 ± 0.99	536.84 ± 0.97	523.17 ± 0.94	510.12 ± 0.92
60000 kPa, x2 = 0.7308	611.1 ± 1.1	–	580.28 ± 1.1	–	550.83 ± 0.99	–	521.54 ± 0.94	–	494.23 ± 0.89
70000 kPa, x2 = 0.2729	642.5 ± 1.2	–	614.83 ± 1.1	–	588.2 ± 1.1	–	561.45 ± 1	–	537.02 ± 0.97
70000 kPa, x2 = 0.5021	630.58 ± 1.1	616.01 ± 1.1	602.33 ± 1.1	588.57 ± 1.1	575.48 ± 1	561.44 ± 1	548.1 ± 0.99	535.32 ± 0.97	523.11 ± 0.94
70000 kPa, x2 = 0.7308	618.12 ± 1.1	–	588.77 ± 1.1	–	561.04 ± 1	–	533.25 ± 0.96	–	507.76 ± 0.92
80000 kPa, x2 = 0.2729	648.79 ± 1.2	–	622.08 ± 1.1	–	596.65 ± 1.1	–	571.06 ± 1	–	547.99 ± 0.99
80000 kPa, x2 = 0.5021	636.93 ± 1.1	622.84 ± 1.1	609.65 ± 1.1	596.66 ± 1.1	584.07 ± 1.1	570.85 ± 1	558.01 ± 1	546.03 ± 0.98	534.41 ± 0.96
80000 kPa, x2 = 0.7308	624.55 ± 1.1	–	596.34 ± 1.1	–	570.01 ± 1	–	543.56 ± 0.98	–	519.7 ± 0.94
90000 kPa, x2 = 0.2729	654.49 ± 1.2	–	628.57 ± 1.1	–	604.5 ± 1.1	–	579.66 ± 1	–	557.71 ± 1
90000 kPa, x2 = 0.5021	642.73 ± 1.2	629.02 ± 1.1	616.63 ± 1.1	603.93 ± 1.1	592.03 ± 1.1	579.23 ± 1	567.04 ± 1	555.52 ± 1	544.56 ± 0.98
90000 kPa, x2 = 0.7308	630.61 ± 1.1	–	603.52 ± 1.1	–	578.24 ± 1	–	552.92 ± 1	–	530.16 ± 0.96
100000 kPa, x2 = 0.2729	659.68 ± 1.2	–	634.85 ± 1.1	–	611.65 ± 1.1	–	587.69 ± 1.1	–	566.67 ± 1
100000 kPa, x2 = 0.5021	648.26 ± 1.2	635.14 ± 1.1	623.18 ± 1.1	610.72 ± 1.1	598.96 ± 1.1	587 ± 1.1	575.06 ± 1	564.2 ± 1	553.96 ± 1
100000 kPa, x2 = 0.7308	636.39 ± 1.1	–	610.01 ± 1.1	–	585.56 ± 1.1	–	561.28 ± 1	–	539.53 ± 0.97
120000 kPa, x2 = 0.2729	669.67 ± 1.2	–	646.16 ± 1.2	–	624.31 ± 1.1	–	601.92 ± 1.1	–	582.31 ± 1.1
120000 kPa, x2 = 0.5021	658.24 ± 1.2	646 ± 1.2	634.71 ± 1.1	622.95 ± 1.1	612.34 ± 1.1	600.73 ± 1.1	589.51 ± 1.1	579.48 ± 1	569.97 ± 1
120000 kPa, x2 = 0.7308	646.6 ± 1.2	–	621.8 ± 1.1	–	599.05 ± 1.1	–	576.29 ± 1	–	556.04 ± 1
140000 kPa, x2 = 0.2729	678.58 ± 1.2	–	656.29 ± 1.2	–	635.59 ± 1.1	–	614.15 ± 1.1	–	595.88 ± 1.1
140000 kPa, x2 = 0.5021	667.41 ± 1.2	655.77 ± 1.2	644.69 ± 1.2	634.01 ± 1.1	623.77 ± 1.1	612.71 ± 1.1	602.26 ± 1.1	592.86 ± 1.1	583.79 ± 1.1
140000 kPa, x2 = 0.7308	656.14 ± 1.2	–	632.64 ± 1.1	–	610.8 ± 1.1	–	589.3 ± 1.1	–	570.27 ± 1
160000 kPa, x2 = 0.2729	686.88 ± 1.2	–	665.5 ± 1.2	–	645.73 ± 1.2	–	625.33 ± 1.1	–	607.79 ± 1.1
160000 kPa, x2 = 0.5021	675.8 ± 1.2	664.45 ± 1.2	654.03 ± 1.2	643.77 ± 1.2	634.07 ± 1.1	623.67 ± 1.1	613.48 ± 1.1	604.42 ± 1.1	596.12 ± 1.1
160000 kPa, x2 = 0.7308	664.71 ± 1.2	–	642.48 ± 1.2	–	621.39 ± 1.1	–	600.76 ± 1.1	–	582.77 ± 1.1
180000 kPa, x2 = 0.2729	694.53 ± 1.2	–	673.94 ± 1.2	–	654.77 ± 1.2	–	635.3 ± 1.1	–	618.69 ± 1.1
180000 kPa, x2 = 0.5021	683.54 ± 1.2	672.59 ± 1.2	662.68 ± 1.2	652.74 ± 1.2	643.46 ± 1.2	633.32 ± 1.1	623.72 ± 1.1	615.03 ± 1.1	606.9 ± 1.1
180000 kPa, x2 = 0.7308	672.47 ± 1.2	–	651.07 ± 1.2	–	630.95 ± 1.1	–	611.22 ± 1.1	–	593.99 ± 1.1
200000 kPa, x2 = 0.2729	701.52 ± 1.3	–	681.74 ± 1.2	–	663.07 ± 1.2	–	644.44 ± 1.2	–	628.49 ± 1.1
200000 kPa, x2 = 0.5021	690.83 ± 1.2	680.14 ± 1.2	670.56 ± 1.2	660.89 ± 1.2	652.2 ± 1.2	642.49 ± 1.2	632.92 ± 1.1	624.5 ± 1.1	616.83 ± 1.1
200000 kPa, x2 = 0.7308	679.87 ± 1.2	–	659.14 ± 1.2	–	639.82 ± 1.1	–	620.55 ± 1.1	–	604.14 ± 1.1

From the NIST ThermoML archive (doi:10.1016/j.jct.2007.06.014)
